Our source for the Ki, IA and EC50 values is ChEMBL document CHEMBL1129171, “BMS-187257, a potent, selective, and novel heterocyclic 3 adrenergic receptor agonist” (Bioorg Med Chem Lett, 1996).

Test [1] deals with Beta-2 adrenergic receptor (Homo sapiens, UniProt P07550). Description: biochemical.
Description: Compound was tested for its binding affinity against beta2 adrenergic receptor in CHO cell membrane using [125I]iodocyanopindolol as the radioligand.
The target in test [2] is Beta-1 adrenergic receptor (Homo sapiens, UniProt P08588). Put plainly: Compound was tested for its binding affinity against Beta-1 adrenergic receptor in CHO cell membrane using [125I]iodocyanopindolol as the radioligand. It counts as cell membranes.
Beta-1 adrenergic receptor, sequence (P08588 whole entry): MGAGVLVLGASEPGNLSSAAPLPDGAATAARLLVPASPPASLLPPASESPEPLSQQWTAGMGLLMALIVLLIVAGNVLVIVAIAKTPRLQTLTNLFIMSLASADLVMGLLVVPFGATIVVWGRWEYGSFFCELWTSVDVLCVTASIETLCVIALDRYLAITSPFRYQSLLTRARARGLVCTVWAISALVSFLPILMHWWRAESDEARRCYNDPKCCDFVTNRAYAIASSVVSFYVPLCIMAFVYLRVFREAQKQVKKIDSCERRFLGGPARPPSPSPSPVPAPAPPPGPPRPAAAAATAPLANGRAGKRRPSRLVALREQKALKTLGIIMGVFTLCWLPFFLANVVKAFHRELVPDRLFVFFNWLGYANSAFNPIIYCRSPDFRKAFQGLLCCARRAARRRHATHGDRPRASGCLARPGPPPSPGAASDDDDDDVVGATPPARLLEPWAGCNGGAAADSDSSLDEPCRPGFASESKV
For test [3], the target named is T1, Beta-3 adrenergic receptor (Homo sapiens, UniProt P13945). Put plainly: Compound was tested for its binding affinity against beta3 adrenergic receptor in CHO cell membrane using [125I]iodocyanopindolol as the radioligand. The class given is cell membranes.
Target sequence in this assay (P13945 whole entry): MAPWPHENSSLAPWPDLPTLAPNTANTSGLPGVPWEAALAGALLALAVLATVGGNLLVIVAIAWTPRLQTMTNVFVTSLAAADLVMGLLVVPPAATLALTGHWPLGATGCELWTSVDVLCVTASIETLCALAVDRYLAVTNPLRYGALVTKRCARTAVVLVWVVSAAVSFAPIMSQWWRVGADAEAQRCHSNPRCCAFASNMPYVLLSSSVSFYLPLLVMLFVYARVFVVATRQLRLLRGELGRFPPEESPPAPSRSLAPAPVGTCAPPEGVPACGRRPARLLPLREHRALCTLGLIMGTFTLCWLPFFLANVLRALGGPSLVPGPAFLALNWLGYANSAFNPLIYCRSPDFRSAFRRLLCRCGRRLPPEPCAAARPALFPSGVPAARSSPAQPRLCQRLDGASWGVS
For test [4], the target named is T1, Beta-3 adrenergic receptor. Description: stimulation of adenylyl cyclase activity in CHO-beta-3 adrenergic receptor cell membrane; expressed as maximal cyclase activity as a fraction of (-)-isoproterenol (IA = 1). It counts as functional.
Target sequence in this assay (P13945 whole entry, looked up): as the sequence (P13945 whole entry) above
Test [5] has as its target T1, Beta-3 adrenergic receptor. Description: Compound was tested for its ability to stimulate adenylyl cyclase activity in CHO Beta-3 adrenergic receptor cell membrane. It counts as functional.
Target sequence in this assay (P13945 whole entry): as above
Test [6] addresses T1, Beta-3 adrenergic receptor. Description: Compound was tested for its ability to stimulate adenylyl cyclase activity in CHO-beta-3 adrenergic receptor cell membrane. The class given is functional.
Target sequence in this assay (P13945 whole entry): as above

Calls of active or inactive are those of the source. The rule behind the calls is not given here.

Beta-2 adrenergic receptor, sequence (P07550 whole entry): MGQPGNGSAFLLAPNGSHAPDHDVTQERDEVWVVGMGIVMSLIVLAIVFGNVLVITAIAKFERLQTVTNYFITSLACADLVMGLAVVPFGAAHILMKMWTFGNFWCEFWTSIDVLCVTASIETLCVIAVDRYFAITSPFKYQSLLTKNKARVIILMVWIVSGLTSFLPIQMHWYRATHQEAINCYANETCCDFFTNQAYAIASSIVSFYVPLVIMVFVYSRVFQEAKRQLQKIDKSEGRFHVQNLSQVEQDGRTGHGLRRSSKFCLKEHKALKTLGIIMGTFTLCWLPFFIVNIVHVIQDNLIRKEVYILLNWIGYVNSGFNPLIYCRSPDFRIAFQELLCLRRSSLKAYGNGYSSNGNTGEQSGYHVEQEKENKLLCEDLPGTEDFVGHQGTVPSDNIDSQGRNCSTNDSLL

Consider `C[C@H](Cc1ncc(CCCC(=O)O)s1)NCC(O)c1cccc(Cl)c1` (stereo partly specified), for which the Ki in test [1] came to 13.9 µM; in test [2] it was 6.4 µM; in test [3], 36.5 µM.

Regarding `C[C@H](Cc1ncc(CCC(=O)O)s1)NCC(O)c1cccc(Cl)c1` (stereo partly specified), the inhibition constant Ki in test [1] stood at 11.4 µM; in test [2], 58.1 µM; in test [3], 146 µM. The IA in test [4] amounted to 0.39. This compound also came in with an EC50 in test [5] of 27.6 µM.

As for `C[C@H](Cc1ncc(CCCCC(=O)O)s1)NC[C@H](O)COc1ccccc1`, the results for the Ki in test [1], in test [2] and in test [3] were 0.15 µM, 0.44 µM and 0.39 µM, respectively. In addition, the IA result in test [4] is “inactive”.

On to `C[C@H](Cc1ncc(CCCC(=O)O)s1)NC[C@H](O)COc1ccccc1`, for which the Ki in test [1] amounted to 1.6 µM; in test [2], 1.3 µM; in test [3] it was 0.76 µM. In test [4], the IA was determined as 0.72. In addition, in test [5], the EC50 was found to be 0.63 µM.

For `C[C@H](Cc1ncc(CCC(=O)O)s1)NC[C@H](O)COc1ccccc1`, the figures for the Ki in test [1], in test [2] and in test [3] were 1.23 µM, 3.44 µM and 3.53 µM, respectively. The compound also came in with an IA in test [4] of 0.56. For the same compound, in test [5], the EC50 stood at 2.76 µM.

As for `O=C(O)COc1ccc(OCCNC[C@H](O)COc2ccccc2)cc1`, in test [4], the IA amounted to 0.71. Moreover, in test [6], it took 0.55 µM to reach a half-maximal effect (EC50). The compound also returned a Ki in test [3] of 0.52 µM.

Consider `C[C@H](Cc1ccc(OCC(=O)O)cc1)NC[C@H](O)c1cccc(Cl)c1`, for which the IA in test [4] was 0.67.
